# In PubChem BioAssay (NCI):
#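 Interpolation was linear, between the two tested concentrations surrounding the appropriate level; five concentrations were tested over 48 hours in 96-well plates. The concentration for full growth arrest is given as TGI.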
# What was measured:
# Assay in all cases: DTP human tumour cell line panel, 48 h
# 786-0 renal = system: 786-0 renal
# A498 renal = system: A498 renal
# A549 NSCLC = system: A549 NSCLC
# ACHN renal = system: ACHN renal
# BT-549 breast = system: BT-549 breast
# CAKI-1 renal = system: CAKI-1 renal
# CCRF-CEM leukemia = system: CCRF-CEM leukemia
# COLO 205 colon = system: COLO 205 colon
# DU-145 prostate = system: DU-145 prostate
# EKVX NSCLC = system: EKVX NSCLC
# HCC-2998 colon = system: HCC-2998 colon
# HCT-116 colon = system: HCT-116 colon
# HCT-15 colon = system: HCT-15 colon
# HL-60(TB) leukemia = system: HL-60(TB) leukemia
# HOP-62 NSCLC = system: HOP-62 NSCLC
# HOP-92 NSCLC = system: HOP-92 NSCLC
# HS 578T breast = system: HS 578T breast
# HT29 colon = system: HT29 colon
# IGROV1 ovarian = system: IGROV1 ovarian
# K-562 leukemia = system: K-562 leukemia
# KM12 colon = system: KM12 colon
# LOX IMVI melanoma = system: LOX IMVI melanoma
# M14 melanoma = system: M14 melanoma
# MALME-3M melanoma = system: MALME-3M melanoma
# MCF7 breast = system: MCF7 breast
# MDA-MB-231 breast = system: MDA-MB-231 breast
# MDA-MB-435 = system: MDA-MB-435
# MDA-N = system: MDA-N
# MOLT-4 leukemia = system: MOLT-4 leukemia
# NCI-H226 lung = system: NCI-H226 lung
# NCI-H23 lung = system: NCI-H23 lung
# NCI-H460 lung = system: NCI-H460 lung
# NCI-H522 lung = system: NCI-H522 lung
# NCI/ADR-RES ovarian = system: NCI/ADR-RES ovarian
# OVCAR-3 ovarian = system: OVCAR-3 ovarian
# OVCAR-4 ovarian = system: OVCAR-4 ovarian
# OVCAR-5 ovarian = system: OVCAR-5 ovarian
# OVCAR-8 ovarian = system: OVCAR-8 ovarian
# PC-3 prostate = system: PC-3 prostate
# RPMI-8226 leukemia = system: RPMI-8226 leukemia
# RXF 393 renal = system: RXF 393 renal
# SF-268 CNS = system: SF-268 CNS
# SF-295 CNS = system: SF-295 CNS
# SF-539 CNS = system: SF-539 CNS
# SK-MEL-2 melanoma = system: SK-MEL-2 melanoma
# SK-MEL-28 melanoma = system: SK-MEL-28 melanoma
# SK-MEL-5 melanoma = system: SK-MEL-5 melanoma
# SK-OV-3 ovarian = system: SK-OV-3 ovarian
# SN12C renal = system: SN12C renal
# SNB-19 CNS = system: SNB-19 CNS
# SNB-75 CNS = system: SNB-75 CNS
# SR leukemia = system: SR leukemia
# SW-620 colon = system: SW-620 colon
# T-47D breast = system: T-47D breast
# TK-10 renal = system: TK-10 renal
# U251 CNS = system: U251 CNS
# UACC-257 melanoma = system: UACC-257 melanoma
# UACC-62 melanoma = system: UACC-62 melanoma
# UO-31 renal = system: UO-31 renal
# DLD-1 colon = system: DLD-1 colon
# DMS 114 small cell lung = system: DMS 114 small cell lung
# DMS 273 small cell lung = system: DMS 273 small cell lung
# KM20L2 colon = system: KM20L2 colon
# LXFL 529 NSCLC = system: LXFL 529 NSCLC
# M19-MEL melanoma = system: M19-MEL melanoma
# SNB-78 CNS = system: SNB-78 CNS
structure (smiles),measurement,setting,value
C=C[C@@]1(C)CC(=O)[C@]2(O)[C@@]3(C)[C@@H](O)CCC(C)(C)[C@@H]3[C@H](O)[C@@H](OC(C)=O)[C@@]2(C)O1,TGI,786-0 renal,> 100 µM
same,TGI,A498 renal,> 100 µM
same,TGI,A549 NSCLC,> 100 µM
same,TGI,ACHN renal,> 100 µM
same,TGI,BT-549 breast,> 100 µM
same,TGI,CAKI-1 renal,> 100 µM
same,TGI,CCRF-CEM leukemia,> 100 µM
same,TGI,COLO 205 colon,> 100 µM
same,TGI,DU-145 prostate,> 100 µM
same,TGI,EKVX NSCLC,> 100 µM
same,TGI,HCC-2998 colon,> 100 µM
same,TGI,HCT-116 colon,> 100 µM
same,TGI,HCT-15 colon,> 100 µM
same,TGI,HL-60(TB) leukemia,> 100 µM
same,TGI,HOP-62 NSCLC,> 100 µM
same,TGI,HOP-92 NSCLC,> 100 µM
same,TGI,HS 578T breast,> 100 µM
same,TGI,HT29 colon,> 100 µM
same,TGI,IGROV1 ovarian,> 100 µM
same,TGI,K-562 leukemia,> 100 µM
same,TGI,KM12 colon,> 100 µM
same,TGI,LOX IMVI melanoma,> 100 µM
same,TGI,M14 melanoma,> 100 µM
same,TGI,MALME-3M melanoma,> 100 µM
same,TGI,MCF7 breast,> 100 µM
same,TGI,MDA-MB-231 breast,> 100 µM
same,TGI,MDA-MB-435,> 100 µM
same,TGI,MDA-N,> 100 µM
same,TGI,MOLT-4 leukemia,> 100 µM
same,TGI,NCI-H226 lung,> 100 µM
same,TGI,NCI-H23 lung,> 100 µM
same,TGI,NCI-H460 lung,> 100 µM
same,TGI,NCI-H522 lung,> 100 µM
same,TGI,NCI/ADR-RES ovarian,> 100 µM
same,TGI,OVCAR-3 ovarian,> 100 µM
same,TGI,OVCAR-4 ovarian,> 100 µM
same,TGI,OVCAR-5 ovarian,> 100 µM
same,TGI,OVCAR-8 ovarian,> 100 µM
same,TGI,PC-3 prostate,> 100 µM
same,TGI,RPMI-8226 leukemia,95.4 µM
same,TGI,RXF 393 renal,> 100 µM
same,TGI,SF-268 CNS,> 100 µM
same,TGI,SF-295 CNS,> 100 µM
same,TGI,SF-539 CNS,> 100 µM
same,TGI,SK-MEL-2 melanoma,> 100 µM
same,TGI,SK-MEL-28 melanoma,> 100 µM
same,TGI,SK-MEL-5 melanoma,> 100 µM
same,TGI,SK-OV-3 ovarian,> 100 µM
same,TGI,SN12C renal,> 100 µM
same,TGI,SNB-19 CNS,> 100 µM
same,TGI,SNB-75 CNS,> 100 µM
same,TGI,SR leukemia,> 100 µM
same,TGI,SW-620 colon,> 100 µM
same,TGI,T-47D breast,> 100 µM
same,TGI,TK-10 renal,> 100 µM
same,TGI,U251 CNS,> 100 µM
same,TGI,UACC-257 melanoma,> 100 µM
same,TGI,UACC-62 melanoma,> 100 µM
same,TGI,UO-31 renal,> 100 µM
NC(=O)c1ncn(C2OC(CO)C(O)C2O)c1NC(=S)NC(=O)c1ccccc1 (stereo not drawn),TGI,786-0 renal,> 100 µM
same,TGI,A498 renal,> 100 µM
same,TGI,A549 NSCLC,> 100 µM
same,TGI,ACHN renal,> 100 µM
same,TGI,CAKI-1 renal,> 100 µM
same,TGI,CCRF-CEM leukemia,> 100 µM
same,TGI,COLO 205 colon,> 100 µM
same,TGI,DLD-1 colon,> 100 µM
same,TGI,DMS 114 small cell lung,> 100 µM
same,TGI,DMS 273 small cell lung,> 100 µM
same,TGI,EKVX NSCLC,> 100 µM
same,TGI,HCC-2998 colon,> 100 µM
same,TGI,HCT-116 colon,> 100 µM
same,TGI,HL-60(TB) leukemia,> 100 µM
same,TGI,HOP-62 NSCLC,> 100 µM
same,TGI,HOP-92 NSCLC,> 100 µM
same,TGI,HT29 colon,> 100 µM
same,TGI,IGROV1 ovarian,> 100 µM
same,TGI,K-562 leukemia,> 100 µM
same,TGI,KM12 colon,> 100 µM
same,TGI,KM20L2 colon,> 100 µM
same,TGI,LOX IMVI melanoma,> 100 µM
same,TGI,LXFL 529 NSCLC,> 100 µM
same,TGI,M14 melanoma,> 100 µM
same,TGI,M19-MEL melanoma,> 100 µM
same,TGI,MALME-3M melanoma,> 100 µM
same,TGI,MOLT-4 leukemia,> 100 µM
same,TGI,NCI-H226 lung,> 100 µM
same,TGI,NCI-H23 lung,> 100 µM
same,TGI,NCI-H460 lung,> 100 µM
same,TGI,NCI-H522 lung,> 100 µM
same,TGI,OVCAR-3 ovarian,> 100 µM
same,TGI,OVCAR-4 ovarian,> 100 µM
same,TGI,OVCAR-5 ovarian,> 100 µM
same,TGI,OVCAR-8 ovarian,> 100 µM
same,TGI,RPMI-8226 leukemia,> 100 µM
same,TGI,RXF 393 renal,> 100 µM
same,TGI,SF-268 CNS,> 100 µM
same,TGI,SF-295 CNS,> 100 µM
same,TGI,SF-539 CNS,> 100 µM
same,TGI,SK-MEL-2 melanoma,> 100 µM
same,TGI,SK-MEL-28 melanoma,> 100 µM
same,TGI,SK-MEL-5 melanoma,> 100 µM
same,TGI,SK-OV-3 ovarian,> 100 µM
same,TGI,SN12C renal,> 100 µM
same,TGI,SNB-19 CNS,> 100 µM
same,TGI,SNB-75 CNS,> 100 µM
same,TGI,SNB-78 CNS,> 100 µM
same,TGI,SR leukemia,> 100 µM
same,TGI,SW-620 colon,> 100 µM
same,TGI,TK-10 renal,> 100 µM
same,TGI,U251 CNS,> 100 µM
same,TGI,UACC-257 melanoma,> 100 µM
same,TGI,UACC-62 melanoma,> 100 µM
same,TGI,UO-31 renal,> 100 µM
COc1ccc2c(c1)CCC(CN1CCN(CCOC(c3ccccc3)c3ccccc3)CC1)C2O (stereo not drawn),TGI,786-0 renal,32.6 µM
same,TGI,A498 renal,23.1 µM
same,TGI,A549 NSCLC,36 µM
same,TGI,ACHN renal,25.6 µM
same,TGI,BT-549 breast,27.1 µM
same,TGI,CAKI-1 renal,31.5 µM
same,TGI,CCRF-CEM leukemia,53.4 µM
same,TGI,COLO 205 colon,27.7 µM
same,TGI,DU-145 prostate,38.9 µM
same,TGI,EKVX NSCLC,24.4 µM
same,TGI,HCC-2998 colon,16.1 µM
same,TGI,HCT-116 colon,24.8 µM
same,TGI,HCT-15 colon,23 µM
same,TGI,HL-60(TB) leukemia,15.2 µM
same,TGI,HOP-62 NSCLC,38.3 µM
same,TGI,HOP-92 NSCLC,28.5 µM
same,TGI,HS 578T breast,41.3 µM
same,TGI,HT29 colon,18.2 µM
same,TGI,IGROV1 ovarian,30.1 µM
same,TGI,K-562 leukemia,44.1 µM
same,TGI,KM12 colon,44.6 µM
same,TGI,LOX IMVI melanoma,32.5 µM
same,TGI,M14 melanoma,29.1 µM
same,TGI,MALME-3M melanoma,32.4 µM
same,TGI,MCF7 breast,37.5 µM
same,TGI,MDA-MB-231 breast,29.7 µM
same,TGI,MDA-MB-435,32 µM
same,TGI,MDA-N,28.1 µM
same,TGI,MOLT-4 leukemia,35.7 µM
same,TGI,NCI-H226 lung,34.1 µM
same,TGI,NCI-H23 lung,28.9 µM
same,TGI,NCI-H460 lung,35.8 µM
same,TGI,NCI-H522 lung,31 µM
same,TGI,NCI/ADR-RES ovarian,27.4 µM
same,TGI,OVCAR-3 ovarian,31.8 µM
same,TGI,OVCAR-4 ovarian,33.2 µM
same,TGI,OVCAR-5 ovarian,30.5 µM
same,TGI,OVCAR-8 ovarian,28.9 µM
same,TGI,PC-3 prostate,26.3 µM
same,TGI,RPMI-8226 leukemia,35.3 µM
same,TGI,RXF 393 renal,29.3 µM
same,TGI,SF-268 CNS,31.5 µM
same,TGI,SF-295 CNS,36 µM
same,TGI,SF-539 CNS,26.4 µM
same,TGI,SK-MEL-2 melanoma,33 µM
same,TGI,SK-MEL-28 melanoma,31.9 µM
same,TGI,SK-MEL-5 melanoma,21.9 µM
same,TGI,SK-OV-3 ovarian,35.8 µM
same,TGI,SN12C renal,26.8 µM
same,TGI,SNB-19 CNS,33.6 µM
same,TGI,SNB-75 CNS,34.5 µM
same,TGI,SR leukemia,69.8 µM
same,TGI,SW-620 colon,60.1 µM
same,TGI,T-47D breast,47.8 µM
same,TGI,TK-10 renal,28.6 µM
same,TGI,U251 CNS,28 µM
same,TGI,UACC-257 melanoma,27.2 µM
same,TGI,UACC-62 melanoma,26.7 µM
same,TGI,UO-31 renal,30 µM
